ChEMBL document CHEMBL1201862, “PubChem BioAssay data set” (2004)
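Each compound was tested at five concentrations against cells in 96-well plates for 48 hours. The concentration for 50% growth inhibition is given as GI50.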 Active and inactive are the calls of the source. No stated cut-off is given here; in the data, active = GI50 up to about 1.1 µM and inactive = higher.

What was measured:
Test in all cases: NCI anticancer screen, dose series, 48 h
[1] = test system: UACC-257
[2] = test system: HCC 2998
[3] = test system: SK-MEL-2
[4] = test system: U-251
[5] = test system: A498
[6] = test system: CCRF-CEM
[7] = test system: TK-10
[8] = test system: NCI/ADR-RES
[9] = test system: SNB-75
[10] = test system: HOP-62
[11] = test system: UACC-62
[12] = test system: T47D
[13] = test system: A549
[14] = test system: HT-29
[15] = test system: MDA-MB-435
[16] = test system: DU-145
[17] = test system: HL-60
[18] = test system: M14
[19] = test system: MCF7
[20] = test system: COLO 205
[21] = test system: SK-MEL-5
[22] = test system: SF-268
[23] = test system: HOP-92
[24] = test system: HCT-116
[25] = test system: MDA-MB-231
[26] = test system: SNB-19
[27] = test system: SK-OV-3
[28] = test system: 786-0
[29] = test system: RPMI-8226
[30] = test system: MDA-N
[31] = test system: ACHN
[32] = test system: KM12
[33] = test system: NCI-H460
[34] = test system: SF-539
[35] = test system: Malme-3M
[36] = test system: SR
[37] = test system: RXF 393
[38] = test system: SK-MEL-28
[39] = test system: Hs-578T
[40] = test system: LOX IMVI
[41] = test system: NCI-H226
[42] = test system: OVCAR-3
[43] = test system: UO-31
[44] = test system: SW-620
[45] = test system: NCI-H23
[46] = test system: HCT-15
[47] = test system: OVCAR-5
[48] = test system: K562
[49] = test system: OVCAR-4
[50] = test system: BT-549
[51] = test system: IGROV-1
[52] = test system: PC-3
[53] = test system: SN12C
[54] = test system: OVCAR-8
[55] = test system: SF-295
[56] = test system: EKVX
[57] = test system: NCI-H522
[58] = test system: CAKI-1
[59] = test system: MOLT-4

With `Cc1ccc(C(=O)Cn2c(C(=O)/C=C/c3cccs3)nc3ccccc32)cc1` the GI50 [1] was 24.4 µM (inactive), the GI50 [2] was 21 µM (inactive) and the GI50 [3] was 12.6 µM (inactive). For the same molecule, the GI50 [4] was 39.1 µM (inactive), the GI50 [5] was 32.1 µM (inactive) and the GI50 [6] was 11.5 µM (inactive). For the same molecule, the GI50 [7] was 53.2 µM (inactive), the GI50 [8] was 23.2 µM (inactive) and the GI50 [9] was > 100 µM (inactive). The GI50 [10] was 67.1 µM (inactive), the GI50 [11] was 87.1 µM (inactive) and the GI50 [12] was > 100 µM (inactive). The GI50 [13] was 32.6 µM (inactive), the GI50 [14] was 38.5 µM (inactive) and the GI50 [15] was 21.3 µM (inactive). For the same molecule, the GI50 [16] was 82 µM (inactive), the GI50 [17] was 22.7 µM (inactive) and the GI50 [18] was 49.9 µM (inactive). The GI50 [19] was 29.6 µM (inactive), the GI50 [20] was 41.1 µM (inactive) and the GI50 [21] was 36.1 µM (inactive). For the same molecule, the GI50 [22] was 32.9 µM (inactive), the GI50 [23] was 93.5 µM (inactive) and the GI50 [24] was 43.4 µM (inactive). For the same molecule, the GI50 [25] was 71.3 µM (inactive), the GI50 [26] was 58.1 µM (inactive) and the GI50 [27] was > 100 µM (inactive). The GI50 [28] was 45.5 µM (inactive), the GI50 [29] was 21.7 µM (inactive) and the GI50 [30] was 28.1 µM (inactive). The GI50 [31] was 61.4 µM (inactive), the GI50 [32] was 24.2 µM (inactive) and the GI50 [33] was 22.4 µM (inactive). For the same molecule, the GI50 [34] was > 100 µM (inactive), the GI50 [35] was 24.5 µM (inactive) and the GI50 [36] was 6.68 µM (inactive). The GI50 [37] was 94.6 µM (inactive), the GI50 [38] was 68.5 µM (inactive) and the GI50 [39] was 20.7 µM (inactive). The GI50 [40] was 26.2 µM (inactive), the GI50 [41] was > 100 µM (inactive) and the GI50 [42] was 31.3 µM (inactive). For the same molecule, the GI50 [43] was 62.8 µM (inactive), the GI50 [44] was 34.2 µM (inactive) and the GI50 [45] was 29.9 µM (inactive). The GI50 [46] was 31.3 µM, the GI50 [47] was > 100 µM (inactive) and the GI50 [48] was 25.8 µM (inactive). The GI50 [49] was 29.5 µM (inactive), the GI50 [50] was 34.4 µM (inactive) and the GI50 [51] was 25 µM (inactive). For the same molecule, the GI50 [52] was 28.6 µM (inactive) and the GI50 [53] was 32.9 µM (inactive).
With `O=C(O)c1ccccc1-c1ccccc1C(=O)Nc1ccc2c(c1)Cc1cc(F)ccc1-2` the GI50 [1] was 22.1 µM (inactive), the GI50 [2] was 16.3 µM (inactive) and the GI50 [54] was 35.2 µM (inactive). The GI50 [3] was 18.8 µM (inactive), the GI50 [4] was 21.3 µM (inactive) and the GI50 [5] was 19 µM (inactive). The GI50 [7] was 28.9 µM (inactive), the GI50 [8] was 36.5 µM (inactive) and the GI50 [9] was 26.6 µM (inactive). The GI50 [10] was 24.9 µM (inactive), the GI50 [11] was 17.7 µM (inactive) and the GI50 [12] was 22.1 µM (inactive). For the same molecule, the GI50 [13] was 24.5 µM (inactive), the GI50 [14] was 22.8 µM (inactive) and the GI50 [15] was 32.5 µM (inactive). The GI50 [16] was 33.6 µM (inactive), the GI50 [18] was 19.7 µM (inactive) and the GI50 [19] was 27.5 µM (inactive). The GI50 [20] was 17.4 µM (inactive), the GI50 [21] was 19.5 µM (inactive) and the GI50 [22] was 43.6 µM (inactive). The GI50 [55] was 26.4 µM (inactive), the GI50 [23] was 37.9 µM (inactive) and the GI50 [24] was 16 µM (inactive). The GI50 [56] was 27.1 µM (inactive), the GI50 [25] was 26.3 µM (inactive) and the GI50 [26] was 36.4 µM (inactive). For the same molecule, the GI50 [57] was 24.3 µM (inactive), the GI50 [27] was 31.3 µM (inactive) and the GI50 [28] was 24.3 µM (inactive). For the same molecule, the GI50 [29] was 31.5 µM (inactive), the GI50 [30] was 23.6 µM (inactive) and the GI50 [31] was 21.2 µM (inactive). The GI50 [32] was 24.5 µM (inactive), the GI50 [33] was 26.6 µM (inactive) and the GI50 [34] was 29.5 µM (inactive). For the same molecule, the GI50 [35] was 33.7 µM (inactive), the GI50 [36] was 18 µM (inactive) and the GI50 [58] was 30.4 µM (inactive). The GI50 [37] was 32.2 µM (inactive), the GI50 [38] was 37.8 µM (inactive) and the GI50 [39] was 54.8 µM (inactive). The GI50 [40] was 19.7 µM (inactive), the GI50 [41] was 30.5 µM (inactive) and the GI50 [42] was 17.7 µM (inactive). For the same molecule, the GI50 [43] was 27.8 µM (inactive), the GI50 [44] was 33.7 µM (inactive) and the GI50 [59] was 26.7 µM (inactive). The GI50 [45] was 17.9 µM (inactive), the GI50 [46] was 17.6 µM and the GI50 [47] was 30.8 µM (inactive). For the same molecule, the GI50 [49] was 25.9 µM (inactive), the GI50 [50] was 18.9 µM (inactive) and the GI50 [51] was 34 µM (inactive). The GI50 [52] was 26.4 µM (inactive) and the GI50 [53] was 12.3 µM (inactive).
